According to ChEMBL document CHEMBL1201862, “PubChem BioAssay data set” (2004):
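Five concentrations, 48 hours, 96-well plates. Abbreviation: GI50, concentration required for 50% inhibition of growth.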 Active and inactive are the calls of the source. No stated cut-off is given here; in the data, active = GI50 up to about 1.1 µM and inactive = higher.

Key:
Experiment in all cases: growth of human tumour cells (NCI), 48 h
786-0 = system: 786-0
A498 = system: A498
A549 = system: A549
ACHN = system: ACHN
BT-549 = system: BT-549
CCRF-CEM = system: CCRF-CEM
COLO 205 = system: COLO 205
DU-145 = system: DU-145
EKVX = system: EKVX
HCC 2998 = system: HCC 2998
HCT-116 = system: HCT-116
HCT-15 = system: HCT-15
HL-60 = system: HL-60
HOP-62 = system: HOP-62
HOP-92 = system: HOP-92
HT-29 = system: HT-29
Hs-578T = system: Hs-578T
IGROV-1 = system: IGROV-1
K562 = system: K562
LOX IMVI = system: LOX IMVI
M14 = system: M14
MCF7 = system: MCF7
MDA-MB-231 = system: MDA-MB-231
MDA-N = system: MDA-N
MOLT-4 = system: MOLT-4
Malme-3M = system: Malme-3M
NCI-H226 = system: NCI-H226
NCI-H23 = system: NCI-H23
NCI-H460 = system: NCI-H460
NCI-H522 = system: NCI-H522
NCI/ADR-RES = system: NCI/ADR-RES
OVCAR-5 = system: OVCAR-5
OVCAR-8 = system: OVCAR-8
PC-3 = system: PC-3
RPMI-8226 = system: RPMI-8226
RXF 393 = system: RXF 393
SF-268 = system: SF-268
SF-295 = system: SF-295
SK-MEL-28 = system: SK-MEL-28
SK-MEL-2 = system: SK-MEL-2
SK-MEL-5 = system: SK-MEL-5
SK-OV-3 = system: SK-OV-3
SN12C = system: SN12C
SNB-19 = system: SNB-19
SNB-75 = system: SNB-75
SR = system: SR
SW-620 = system: SW-620
T47D = system: T47D
TK-10 = system: TK-10
U-251 = system: U-251
UACC-257 = system: UACC-257
UACC-62 = system: UACC-62
UO-31 = system: UO-31
CAKI-1 = system: CAKI-1
KM12 = system: KM12
MDA-MB-435 = system: MDA-MB-435
OVCAR-3 = system: OVCAR-3
OVCAR-4 = system: OVCAR-4
SF-539 = system: SF-539

CNC(=O)N1CCN(C(=O)NC)CCN(C(=O)NC)CC1
GI50 (786-0): > 100 µM (inactive) | GI50 (A498): > 100 µM (inactive) | GI50 (A549): > 100 µM (inactive) | GI50 (ACHN): > 100 µM (inactive) | GI50 (BT-549): > 100 µM (inactive) | GI50 (CCRF-CEM): > 100 µM (inactive) | GI50 (COLO 205): > 100 µM (inactive) | GI50 (DU-145): > 100 µM (inactive) | GI50 (EKVX): > 100 µM (inactive) | GI50 (HCC 2998): > 100 µM (inactive) | GI50 (HCT-116): > 100 µM (inactive) | GI50 (HCT-15): > 100 µM | GI50 (HL-60): > 100 µM (inactive) | GI50 (HOP-62): > 100 µM (inactive) | GI50 (HOP-92): > 100 µM (inactive) | GI50 (HT-29): > 100 µM (inactive) | GI50 (Hs-578T): > 100 µM (inactive) | GI50 (IGROV-1): > 100 µM (inactive) | GI50 (K562): > 100 µM (inactive) | GI50 (LOX IMVI): > 100 µM (inactive) | GI50 (M14): > 100 µM (inactive) | GI50 (MCF7): > 100 µM (inactive) | GI50 (MDA-MB-231): > 100 µM (inactive) | GI50 (MDA-N): > 100 µM (inactive) | GI50 (MOLT-4): > 100 µM (inactive) | GI50 (Malme-3M): > 100 µM (inactive) | GI50 (NCI-H226): > 100 µM (inactive) | GI50 (NCI-H23): > 100 µM (inactive) | GI50 (NCI-H460): > 100 µM (inactive) | GI50 (NCI-H522): > 100 µM (inactive) | GI50 (NCI/ADR-RES): > 100 µM (inactive) | GI50 (OVCAR-5): > 100 µM (inactive) | GI50 (OVCAR-8): > 100 µM (inactive) | GI50 (PC-3): > 100 µM (inactive) | GI50 (RPMI-8226): > 100 µM (inactive) | GI50 (RXF 393): > 100 µM (inactive) | GI50 (SF-268): > 100 µM (inactive) | GI50 (SF-295): > 100 µM (inactive) | GI50 (SK-MEL-28): > 100 µM (inactive) | GI50 (SK-MEL-2): > 100 µM (inactive) | GI50 (SK-MEL-5): > 100 µM (inactive) | GI50 (SK-OV-3): > 100 µM (inactive) | GI50 (SN12C): > 100 µM (inactive) | GI50 (SNB-19): > 100 µM (inactive) | GI50 (SNB-75): > 100 µM (inactive) | GI50 (SR): > 100 µM (inactive) | GI50 (SW-620): > 100 µM (inactive) | GI50 (T47D): > 100 µM (inactive) | GI50 (TK-10): > 100 µM (inactive) | GI50 (U-251): > 100 µM (inactive) | GI50 (UACC-257): > 100 µM (inactive) | GI50 (UACC-62): > 100 µM (inactive) | GI50 (UO-31): > 100 µM (inactive)

CC(C)c1nc(Cl)nc(Cl)c1Cl
GI50 (786-0): 0.104 µM (active) | GI50 (A498): 3.27 µM (inactive) | GI50 (A549): 1.58 µM (inactive) | GI50 (ACHN): 0.264 µM (active) | GI50 (BT-549): 0.0113 µM (active) | GI50 (CAKI-1): < 0.01 µM (active) | GI50 (CCRF-CEM): < 0.01 µM (active) | GI50 (COLO 205): 0.239 µM (active) | GI50 (DU-145): 3.12 µM (inactive) | GI50 (EKVX): 1.63 µM (inactive) | GI50 (HCC 2998): 0.948 µM (active) | GI50 (HCT-116): 0.0344 µM (active) | GI50 (HCT-15): 0.279 µM | GI50 (HL-60): 0.0125 µM (active) | GI50 (HOP-62): 0.794 µM (active) | GI50 (HOP-92): 0.0233 µM (active) | GI50 (HT-29): 0.0479 µM (active) | GI50 (Hs-578T): 0.302 µM (active) | GI50 (IGROV-1): 0.172 µM (active) | GI50 (K562): < 0.01 µM (active) | GI50 (KM12): 0.293 µM (active) | GI50 (LOX IMVI): < 0.0365 µM (active) | GI50 (M14): 0.0843 µM (active) | GI50 (MDA-MB-231): 1.24 µM (inactive) | GI50 (MDA-MB-435): 0.241 µM (active) | GI50 (MDA-N): 0.679 µM (active) | GI50 (MOLT-4): 0.0284 µM (active) | GI50 (Malme-3M): 0.304 µM (active) | GI50 (NCI-H226): 2.27 µM (inactive) | GI50 (NCI-H23): 0.474 µM (active) | GI50 (NCI-H460): 1.29 µM (inactive) | GI50 (NCI-H522): 0.303 µM (active) | GI50 (NCI/ADR-RES): 0.295 µM (active) | GI50 (OVCAR-3): 0.142 µM (active) | GI50 (OVCAR-4): 0.249 µM (active) | GI50 (OVCAR-5): 0.414 µM (active) | GI50 (OVCAR-8): 0.436 µM (active) | GI50 (PC-3): 0.401 µM (active) | GI50 (RPMI-8226): 0.142 µM (active) | GI50 (RXF 393): 0.365 µM (active) | GI50 (SF-268): 1.16 µM (inactive) | GI50 (SF-295): 2.82 µM (inactive) | GI50 (SF-539): 0.515 µM (active) | GI50 (SK-MEL-28): 0.357 µM (active) | GI50 (SK-MEL-2): 0.239 µM (active) | GI50 (SK-MEL-5): 0.861 µM (active) | GI50 (SK-OV-3): 4.58 µM (inactive) | GI50 (SN12C): 0.482 µM (active) | GI50 (SNB-19): 0.847 µM (active) | GI50 (SNB-75): 5.11 µM (inactive) | GI50 (SR): < 0.01 µM (active) | GI50 (SW-620): < 0.0233 µM (active) | GI50 (T47D): 0.6 µM (active) | GI50 (TK-10): 0.468 µM (active) | GI50 (U-251): 0.61 µM (active) | GI50 (UACC-257): 0.256 µM (active) | GI50 (UACC-62): 0.266 µM (active) | GI50 (UO-31): 0.0711 µM (active)

COC(=O)C1(Cc2ccccc2)Cc2cc3c(cc2C1O)CCC3 (stereo not given)
GI50 (786-0): 13.6 µM (inactive) | GI50 (A498): 19.7 µM (inactive) | GI50 (A549): 24 µM (inactive) | GI50 (ACHN): 17.1 µM (inactive) | GI50 (BT-549): 15.5 µM (inactive) | GI50 (CAKI-1): 11.6 µM (inactive) | GI50 (CCRF-CEM): 16.1 µM (inactive) | GI50 (COLO 205): 21.3 µM (inactive) | GI50 (DU-145): 15.2 µM (inactive) | GI50 (EKVX): 22.9 µM (inactive) | GI50 (HCC 2998): 24.9 µM (inactive) | GI50 (HCT-116): 17.9 µM (inactive) | GI50 (HCT-15): 30.5 µM | GI50 (HL-60): 24.5 µM (inactive) | GI50 (HOP-62): 19.3 µM (inactive) | GI50 (HOP-92): 16 µM (inactive) | GI50 (HT-29): 13.8 µM (inactive) | GI50 (Hs-578T): 13.8 µM (inactive) | GI50 (IGROV-1): 15.8 µM (inactive) | GI50 (K562): 19.7 µM (inactive) | GI50 (KM12): 21.3 µM (inactive) | GI50 (LOX IMVI): 19.1 µM (inactive) | GI50 (MDA-MB-231): 18.3 µM (inactive) | GI50 (MDA-MB-435): 16.3 µM (inactive) | GI50 (MDA-N): 17.5 µM (inactive) | GI50 (MOLT-4): 17.5 µM (inactive) | GI50 (Malme-3M): 14 µM (inactive) | GI50 (NCI-H226): 19.5 µM (inactive) | GI50 (NCI-H23): 15 µM (inactive) | GI50 (NCI-H460): 30.1 µM (inactive) | GI50 (NCI-H522): 17.4 µM (inactive) | GI50 (NCI/ADR-RES): 18.4 µM (inactive) | GI50 (OVCAR-3): 16.4 µM (inactive) | GI50 (OVCAR-4): 15 µM (inactive) | GI50 (OVCAR-5): 13.6 µM (inactive) | GI50 (OVCAR-8): 25.6 µM (inactive) | GI50 (PC-3): 19 µM (inactive) | GI50 (RPMI-8226): 22.7 µM (inactive) | GI50 (RXF 393): 15 µM (inactive) | GI50 (SF-268): 30.3 µM (inactive) | GI50 (SF-295): 27 µM (inactive) | GI50 (SF-539): 18.2 µM (inactive) | GI50 (SK-MEL-28): 16.1 µM (inactive) | GI50 (SK-MEL-5): 15.9 µM (inactive) | GI50 (SK-OV-3): 17 µM (inactive) | GI50 (SN12C): 17.7 µM (inactive) | GI50 (SNB-75): 34.8 µM (inactive) | GI50 (SR): 26.7 µM (inactive) | GI50 (SW-620): 13.2 µM (inactive) | GI50 (T47D): 28.5 µM (inactive) | GI50 (TK-10): 25.9 µM (inactive) | GI50 (UACC-257): 18.2 µM (inactive) | GI50 (UACC-62): 16.9 µM (inactive) | GI50 (UO-31): > 10 µM (inactive)
